Reference: PubChem BioAssay (NCI)
Several values for one entry are separate records, joined by “and”; a condition that tells them apart may be missing. Equal values may be shown once.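 Cells were grown in 96-well plates and exposed to each compound for 48 hours at five concentrations; endpoints were interpolated linearly between bracketing concentrations, or set to the highest concentration if not reached. Abbreviation: GI50, concentration required for 50% inhibition of growth. TGI: total growth inhibition.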

Legend:
Test in all cases: NCI anticancer screen, dose series, 48 h
786-0 renal = system: 786-0 renal
CAKI-1 renal = system: CAKI-1 renal
COLO 205 colon = system: COLO 205 colon
LOX IMVI melanoma = system: LOX IMVI melanoma
MOLT-4 leukemia = system: MOLT-4 leukemia
SF-268 CNS = system: SF-268 CNS
SN12C renal = system: SN12C renal
SW-620 colon = system: SW-620 colon
U251 CNS = system: U251 CNS
SR leukemia = system: SR leukemia

| SMILES | TGI (786-0 renal) | TGI (CAKI-1 renal) | TGI (COLO 205 colon) | TGI (LOX IMVI melanoma) | TGI (MOLT-4 leukemia) | TGI (SF-268 CNS) | TGI (SN12C renal) | TGI (SW-620 colon) | TGI (U251 CNS) | TGI (SR leukemia) | GI50 (786-0 renal) | GI50 (COLO 205 colon) | GI50 (LOX IMVI melanoma) | GI50 (MOLT-4 leukemia) | GI50 (SF-268 CNS) | GI50 (SN12C renal) | GI50 (SR leukemia) | GI50 (SW-620 colon) | GI50 (U251 CNS) | GI50 (CAKI-1 renal) |
| --- | --- | --- | --- | --- | --- | --- | --- | --- | --- | --- | --- | --- | --- | --- | --- | --- | --- | --- | --- | --- |
| CN1c2ccccc2S(=O)(=O)n2c(COc3ccc(Cl)cc3)nnc21 | > 100 µM | > 100 µM | > 100 µM | > 100 µM | > 100 µM | > 100 µM | > 100 µM | > 100 µM | > 100 µM | – | – | – | – | – | – | – | – | – | – | – |
| CCC1CC(=O)N(SCC(N)C(=O)O)C1=O (stereo not drawn) | > 100 µM | > 100 µM | > 100 µM | > 100 µM | – | > 100 µM | > 100 µM | > 100 µM | > 100 µM | > 100 µM | – | – | – | – | – | – | – | – | – | – |
| CN(c1ccccc1)C1C(=O)N(c2ccccc2)C1/C=C/c1ccccc1 (stereo not drawn) | > 100 µM | > 100 µM | > 100 µM | – | > 100 µM | > 100 µM | > 100 µM | > 100 µM | > 100 µM | > 100 µM | – | – | – | – | – | – | – | – | – | – |
| COC(=O)[C@@]1(C)CC[C@]2(C)CC[C@]3(C)C4=CC=C5C(=CC(=O)C(O)=C5C)[C@]4(C)CC[C@@]3(C)[C@@H]2C1 | 0.315 µM | – | 0.437 µM | 0.325 µM | 0.525 µM | 1.23 µM | 0.507 µM | 0.414 µM | 0.321 µM | 0.564 µM | 0.172 µM | 0.182 µM | 0.174 µM | 0.164 µM | 0.341 µM | 0.201 µM | 0.19 µM | 0.165 µM | 0.173 µM | – |
| CCOC(=O)C1=C(C)NC2SC(=O)/C(=C\c3ccccc3)N2C1c1ccccc1 (stereo not drawn) | > 100 µM | > 100 µM | > 100 µM | > 100 µM | – | > 100 µM | > 100 µM | > 100 µM | > 100 µM | – | > 100 µM | > 100 µM | > 100 µM | – | > 100 µM | > 100 µM | – | > 100 µM | > 100 µM | > 100 µM |
| CC[C@H](C)n1cc(C)c2c(C(=O)NCc3c(C)cc(C)[nH]c3=O)cc(-c3ccc(N4CCNCC4)nc3)cc21 | 24.4 µM and 25.2 µM | 29.6 µM and 28.8 µM | 18.6 µM and 8.85 µM | 21.8 µM and 19.4 µM | 20.6 µM and 22 µM | 29.8 µM and 27.8 µM | 27.9 µM and 28.6 µM | 21.8 µM and 22.1 µM | 23.1 µM and 22.7 µM | – | 10.6 µM and 11.7 µM | 5.25 µM and 2.93 µM | 8.89 µM and 6.3 µM | 5.87 µM and 6.18 µM | 14.7 µM and 13 µM | 13.8 µM and 13.7 µM | – | 10.1 µM and 8.21 µM | 10.9 µM and 10.2 µM | 16.1 µM and 15.4 µM |
| CC1(C)C(=S)C(C)(C)C1=S | > 100 µM | – | > 100 µM | > 100 µM | > 100 µM | > 100 µM | > 100 µM | > 100 µM | > 100 µM | > 100 µM | – | – | – | – | – | – | – | – | – | – |
| CC(C)(C)[Si](C)(C)O/N=C\c1ccc(O[Si](C)(C)C(C)(C)C)cc1 | > 100 µM | > 100 µM | > 100 µM | 40.1 µM | > 100 µM | > 100 µM | > 100 µM | > 100 µM | 61.7 µM | – | – | – | – | – | – | – | – | – | – | – |
| O=C1C(Cl)=C(Nc2cccc(O)c2)C(=O)N1c1ccc(Cl)c(Cl)c1 | 35.3 µM | 59.1 µM | 89.9 µM | 33.3 µM | > 100 µM | 62.3 µM | 39.4 µM | – | 30.9 µM | 67.1 µM | 17.7 µM | 32 µM | 15.8 µM | 15.1 µM | 23.8 µM | 18.1 µM | 14.2 µM | – | 15.5 µM | 22.8 µM |
| CC1=C([Se]CC(OC(=O)[C@@H](CO)NC(=O)OC(C)(C)C)C(=O)NC(C)(C)C)C(=O)c2ccccc2C1=O (stereo partly drawn) | 3.39 µM | 3.39 µM | 3.3 µM | 3.02 µM | – | 3.34 µM | 3.41 µM | 3.33 µM | 2.56 µM | – | 1.95 µM | 1.83 µM | 1.6 µM | – | 1.89 µM | 1.85 µM | – | 1.77 µM | 0.986 µM | 1.76 µM |
| N#Cc1cccc(NC(=O)c2oc3ccccc3c2-c2cnn(-c3ccccc3)c2)c1 | > 500 µM | > 500 µM | > 500 µM | > 500 µM | – | > 500 µM | > 500 µM | > 500 µM | > 500 µM | > 500 µM | 221 µM | > 500 µM | 308 µM | – | 304 µM | > 500 µM | 148 µM | > 500 µM | 256 µM | > 500 µM |
| CN(C)CCN=Cc1c2ccccc2c(=O)n2c1oc1ccccc12 | 25.3 µM | 15.2 µM | – | 16.1 µM | > 100 µM | 20 µM | 17.1 µM | – | 21 µM | > 100 µM | 11.6 µM | – | 4.18 µM | 4.2 µM | 5.56 µM | 3.81 µM | 3.7 µM | – | 7.4 µM | 3.62 µM |
| Nc1ccccc1NC(=O)c1ccc(CN2CCC/C(=C\c3cccc(Cl)c3)C2=O)cc1 | 2.17 µM | – | – | 2.06 µM | > 100 µM | 6.74 µM | 85.3 µM | > 100 µM | 13.2 µM | > 100 µM | 0.366 µM | 0.157 µM | 0.0664 µM | 0.474 µM | 1.41 µM | 0.708 µM | 0.156 µM | 0.0539 µM | 0.138 µM | – |
| C/C(=N/NC(=O)C(N)=O)C(CC(C(=O)Nc1ccccc1C)/C(C)=N\NC(=O)C(N)=O)C(=O)Nc1ccccc1C (stereo not drawn) | > 100 µM | > 100 µM | > 100 µM | > 100 µM | > 100 µM | > 100 µM | > 100 µM | > 100 µM | > 100 µM | – | – | – | – | – | – | – | – | – | – | – |
| CCOc1ccc(N=Nc2ccc3oc(=O)c(C(=O)Nc4ccc(OC)cc4)cc3c2)cc1 | 93.9 µM | > 100 µM | > 100 µM | 55.6 µM | 44.4 µM | 78.4 µM | > 100 µM | > 100 µM | 61.1 µM | – | – | – | – | – | – | – | – | – | – | – |
| N#CN1CCC[C@H]1C(=O)N1CCc2c(-c3[nH]nc4ncccc34)cccc21 | 11.5 µM | 1.46 µM | – | 10.6 µM | 11 µM | 13.2 µM | 48.2 µM | 13.5 µM | 2.91 µM | 20 µM | < 0.01 µM | – | < 0.01 µM | < 0.01 µM | < 0.01 µM | < 0.01 µM | < 0.01 µM | < 0.01 µM | 0.281 µM | < 0.01 µM |
